Data published in paper PMC9913288, “Suppression of Cancer Cell Stemness and Drug Resistance via MYC Destabilization by Deubiquitinase USP45 Inhibition with a Natural Small Molecule” (Cancers, 2023).

Target: T1, USP45 (Homo sapiens, UniProt Q70EL2)
T1 construct: USP45-His purified from E. coli BL21, biotinylated
T1 sequence (Q70EL2 1-814): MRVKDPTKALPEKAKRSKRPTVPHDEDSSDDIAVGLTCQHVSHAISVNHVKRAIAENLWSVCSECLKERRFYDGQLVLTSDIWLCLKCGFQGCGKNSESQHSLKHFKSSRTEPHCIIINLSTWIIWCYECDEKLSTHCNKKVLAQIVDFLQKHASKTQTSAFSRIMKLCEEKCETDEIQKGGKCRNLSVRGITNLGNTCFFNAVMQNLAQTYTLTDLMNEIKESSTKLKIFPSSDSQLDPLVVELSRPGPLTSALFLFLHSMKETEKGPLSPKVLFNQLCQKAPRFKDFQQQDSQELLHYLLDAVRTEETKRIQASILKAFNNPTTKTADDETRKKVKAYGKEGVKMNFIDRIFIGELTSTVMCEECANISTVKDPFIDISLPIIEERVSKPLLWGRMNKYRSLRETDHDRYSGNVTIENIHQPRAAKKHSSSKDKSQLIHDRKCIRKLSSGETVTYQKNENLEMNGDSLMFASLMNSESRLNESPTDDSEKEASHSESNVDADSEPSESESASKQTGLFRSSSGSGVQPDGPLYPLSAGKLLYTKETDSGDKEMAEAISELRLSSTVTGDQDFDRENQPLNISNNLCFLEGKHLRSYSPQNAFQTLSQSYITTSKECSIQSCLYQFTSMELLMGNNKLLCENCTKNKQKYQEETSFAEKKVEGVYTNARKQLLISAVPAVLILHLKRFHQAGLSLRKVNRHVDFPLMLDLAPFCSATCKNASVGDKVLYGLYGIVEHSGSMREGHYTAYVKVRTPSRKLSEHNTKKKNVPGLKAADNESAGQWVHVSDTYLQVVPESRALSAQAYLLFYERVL
Assay: BLI (OCTET K2) with purified biotinylated USP45
Assay type: binding

Kd: 19.3 µM
SMILES: COc1c(O)cc2oc3cc(O)c(CC=C(C)C)c(O)c3c(=O)c2c1CC=C(C)C [AMG, α-mangostin]
